Source: patent publication US7473790B2 (Pfizer Inc., priority 2003, dated 2009)

The molecules below were run against T1, HCV polymerase (Hepatitis C virus genotype 1b, UniProt P26663) (assay: HCV polymerase primer/template-directed transcription assay (32P-GTP incorporation, filter binding)). Conditions: recombinant HCV polymerase; 30 minutes at 30° C.; concentration giving 50% inhibition of polymerase-directed transcription; read-out: IC50.
T1 construct: 2.5 pmoles (0.15 μg) HCV polymerase protein in a final volume of 75 μL
T1 sequence (P26663 2420-3010): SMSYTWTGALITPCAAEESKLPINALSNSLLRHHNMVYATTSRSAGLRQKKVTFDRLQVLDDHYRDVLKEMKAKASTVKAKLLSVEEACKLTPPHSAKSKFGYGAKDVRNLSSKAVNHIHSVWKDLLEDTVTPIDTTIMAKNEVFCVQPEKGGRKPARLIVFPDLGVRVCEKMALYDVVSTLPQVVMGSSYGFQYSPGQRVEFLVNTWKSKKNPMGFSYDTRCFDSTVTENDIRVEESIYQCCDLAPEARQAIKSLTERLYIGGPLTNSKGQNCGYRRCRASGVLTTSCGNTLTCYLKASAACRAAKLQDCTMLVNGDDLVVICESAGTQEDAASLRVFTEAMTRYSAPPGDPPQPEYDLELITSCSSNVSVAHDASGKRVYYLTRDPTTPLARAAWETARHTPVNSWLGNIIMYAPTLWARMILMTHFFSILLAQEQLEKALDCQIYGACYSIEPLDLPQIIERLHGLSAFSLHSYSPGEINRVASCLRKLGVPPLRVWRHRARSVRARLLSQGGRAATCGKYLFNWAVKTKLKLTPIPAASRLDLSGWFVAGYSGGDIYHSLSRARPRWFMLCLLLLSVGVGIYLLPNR
Assay type: biochemical
How it was run: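 IC50s come from triplicate cpm, refit with an enzyme-concentration (30 nM) correction when under 200 nM. Reactions ran 30 min at 30° C in Tris pH 7.2 with MgCl2, 1 μM GTP spiked with α-32P-GTP, biotin-dG12 primer and poly(rC)300 template, with 1% DMSO. Incorporated label was collected on DE filtermats and counted.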

Point of comparison: COc1cccc(CC2=C(O)CC(CCc3ccc(C(C)(C)C#N)c(F)c3)(C3CCCC3)OC2=O)c1 (stereo not drawn) [A(100), 2-(4-{2-[2-cyclopentyl-4-hydroxy-5-(3-methoxybenzyl)-6-oxo-3,6-dihydro-2H-pyran-2-yl]ethyl}-2-fluorophenyl)-2-methylpropanenitrile], IC50 88 nM. Against it:
- CCc1nc(C)c(CC2=C(O)CC(CCc3ccc(C(C)(C)C#N)c(F)c3)(C3CCCC3)OC2=O)[nH]1 (stereo not drawn) [A(97), 2-[4-(2-{2-cyclopentyl-5-[(2-ethyl-4-methyl-1H-imidazol-5-yl)methyl]-4-hydroxy-6-oxo-3,6-dihydro-2H-pyran-2-yl}ethyl)-2-fluorophenyl]-2-methylpropanenitrile] — 3.3-fold higher, 290 nM
- Cn1c(CC2=C(O)CC(CCc3ccc(C(C)(C)C#N)c(F)c3)(C3CCCC3)OC2=O)nc2cc(Cl)ccc21 (stereo not drawn) [A(98), 2-[4-(2-{5-[(5-chloro-1-methyl-1H-benzimidazol-2-yl)methyl]-2-cyclopentyl-4-hydroxy-6-oxo-3,6-dihydro-2H-pyran-2-yl}ethyl)-2-fluorophenyl]-2-methylpropanenitrile] — 8.8-fold lower, 10 nM
- CC(C)(C#N)c1ccc(CCC2(C3CCCC3)CC(O)=C(Cc3cc[nH]c(=O)c3)C(=O)O2)cc1F (stereo not drawn) [A(99), 2-[4-(2-{2-cyclopentyl-4-hydroxy-6-oxo-5-[(2-oxo-1,2-dihydropyridin-4-yl)methyl]-3,6-dihydro-2H-pyran-2-yl}ethyl)-2-fluorophenyl]-2-methylpropanenitrile] — 5.2-fold lower, 17 nM
- CC(C)(C#N)c1ccc(CCC2(C3CCCC3)CC(O)=C(Cc3cccc(S(C)(=O)=O)c3)C(=O)O2)cc1F (stereo not drawn) [A(101), 2-[4-(2-{2-cyclopentyl-4-hydroxy-5-[3-(methylsulfonyl)benzyl]-6-oxo-3,6-dihydro-2H-pyran-2-yl}ethyl)-2-fluorophenyl]-2-methylpropanenitrile] — within 1.5-fold, 66 nM
- Cn1cc(Cl)c(CC2=C(O)CC(CCc3ccc(C(C)(C)C#N)c(F)c3)(C3CCCC3)OC2=O)n1 (stereo not drawn) [A(102), 2-[4-(2-{5-[(4-chloro-1-methyl-1H-pyrazol-3-yl)methyl]-2-cyclopentyl-4-hydroxy-6-oxo-3,6-dihydro-2H-pyran-2-yl}ethyl)-2-fluorophenyl]-2-methylpropanenitrile] — 18-fold lower, 5 nM
- CC(C)(C#N)c1ccc(CCC2(C3CCCC3)CC(O)=C(Cc3cn4ccccc4n3)C(=O)O2)cc1F (stereo not drawn) [A(103), 2-(4-{2-[2-cyclopentyl-4-hydroxy-5-(imidazo[1,2-a]pyridin-2-ylmethyl)-6-oxo-3,6-dihydro-2H-pyran-2-yl]ethyl}-2-fluorophenyl)-2-methylpropanenitrile] — 2-fold higher, 180 nM
- Cc1nc[nH]c1CC1C(=O)CC(CCc2ccc(C(C)(C)C#N)c(F)c2)(C2CCCC2)OC1=O (stereo not drawn) [A(107), 2-(4-{2-[2-Cyclopentyl-5-(5-methyl-3H-imidazol-4-ylmethyl)-4,6-dioxo-tetrahydro-pyran-2-yl]-ethyl}-2-fluoro-phenyl)-2-methyl-propionitrile] — 4.1-fold higher, 360 nM
- CC(C)(C#N)c1ccc(CCC2(C3CCCC3)CC(=O)C(Cc3nc4ncc(Cl)cn4n3)C(=O)O2)cc1F (stereo not drawn) [A(111), 2-(4-{2-[5-(6-Chloro-[1,2,4]triazolo[1,5-a]pyrimidin-2-ylmethyl)-2-cyclopentyl-4,6-dioxo-tetrahydro-pyran-2-yl]-ethyl}-2-fluoro-phenyl)-2-methyl-propionitrile] — 44-fold lower, 2 nM
- CCC(C#N)(CC)c1ccc(CCC2(C3CCCC3)CC(=O)C(Cc3nc4nc(C)cc(C)n4n3)C(=O)O2)cc1F (stereo not drawn) [A(112), 2-(4-{2-[2-Cyclopentyl-5-(5,7-dimethyl-[1,2,4]triazolo[1,5-a]pyrimidin-2-ylmethyl)-4,6-dioxo-tetrahydro-pyran-2-yl]-ethyl}-2-fluoro-phenyl)-2-ethyl-butyronitrile] — 15-fold lower, 6 nM
- Cc1cnc2nc(CC3C(=O)CC(CCc4ccc(C5(C#N)CC5)c(F)c4)(C4CCCC4)OC3=O)nn2c1 (stereo not drawn) [A(113), 1-(4-{2-[2-Cyclopentyl-5-(6-methyl-[1,2,4]triazolo[1,5-a]pyrimidin-2-ylmethyl)-4,6-dioxo-tetrahydro-pyran-2-yl]-ethyl}-2-fluoro-phenyl)-cyclopropanecarbonitrile] — 11-fold lower, 8 nM
- N#CC1(c2ccc(CCC3(C4CCCC4)CC(=O)C(Cc4nc5ncccn5n4)C(=O)O3)cc2F)CC1 (stereo not drawn) [A(114), 1-{4-[2-(2-Cyclopentyl-4,6-dioxo-5-[1,2,4]triazolo[1,5-a]pyrimidin-2-ylmethyl-tetrahydro-pyran-2-yl)-ethyl]-2-fluoro-phenyl}-cyclopropanecarbonitrile] — 8.8-fold lower, 10 nM
- N#CC1(c2ccc(CCC3(C4CCCC4)CC(=O)C(Cc4nc5ncc(Cl)cn5n4)C(=O)O3)cc2F)CC1 (stereo not drawn) [A(115), 1-(4-{2-[5-(6-Chloro-[1,2,4]triazolo[1,5-a]pyrimidin-2-ylmethyl)-2-cyclopentyl-4,6-dioxo-tetrahydro-pyran-2-yl]-ethyl}-2-fluoro-phenyl)-cyclopropanecarbonitrile] — 18-fold lower, 5 nM
- Cc1cc(C)n2nc(CC3=C(O)CC(CCc4ccc(CCO)c(F)c4)(C4CCCC4)OC3=O)nc2n1 (stereo not drawn) [A(119), 6-Cyclopentyl-3-(5,7-dimethyl-[1,2,4]triazolo[1,5-a]pyrimidin-2-ylmethyl)-6-{2-[3-fluoro-4-(2-hydroxy-ethyl)-phenyl]-ethyl}-4-hydroxy-5,6-dihydro-pyran-2-one] — 14-fold higher, 1200 nM
- O=C1CC(=O)OC(CCc2ccc(CCO)c(F)c2)(C2CCCC2)C1 (stereo not drawn) [A(120)] — 150-fold higher, 13000 nM
- CC(C)(CO)c1ccc(CCC2(C3CCCC3)CC(=O)CC(=O)O2)cc1F (stereo not drawn) [A(121), 6-Cyclopentyl-6-{2-[3-fluoro-4-(2-hydroxy-1,1-dimethyl-ethyl)-phenyl]-ethyl}-dihydro-pyran-2,4-dione] — 15-fold higher, 1300 nM
- O=C1CC(=O)OC(CCc2cc(F)cc(F)c2)(C2CCCC2)C1 (stereo not drawn) [A(122), 6-Cyclopentyl-6-[2-(3,5-difluoro-phenyl)-ethyl]-dihydro-pyran-2,4-dione] — 350-fold higher, 31000 nM
- CCc1cc(CCC2(C3CCCC3)CC(O)=C(Cc3nc4nc(C)cc(C)n4n3)C(=O)O2)cc(F)c1O (stereo not drawn) [A(123), 6-Cyclopentyl-3-(5,7-dimethyl-[1,2,4]triazolo[1,5-a]pyrimidin-2-ylmethyl)-6-[2-(3-ethyl-5-fluoro-4-hydroxy-phenyl)-ethyl]-4-hydroxy-5,6-dihydro-pyran-2-one] — 7.3-fold lower, 12 nM
- CCc1cc(CCC2(C3CCCC3)CC(=O)CC(=O)O2)cc(F)c1O (stereo not drawn) [A(124), 6-Cyclopentyl-6-[2-(3-ethyl-5-fluoro-4-hydroxy-phenyl)-ethyl]-dihydro-pyran-2,4-dione] — 4-fold higher, 350 nM
- CCc1cc(CCC2(C3CCCC3)CC(O)=C(Cc3nc4ncc(C)cn4n3)C(=O)O2)cc(F)c1O (stereo not drawn) [A(125), 6-Cyclopentyl-6-[2-(3-ethyl-5-fluoro-4-hydroxy-phenyl)-ethyl]-4-hydroxy-3-(6-methyl-[1,2,4]triazolo[1,5-a]pyrimidin-2-ylmethyl)-5,6-dihydro-pyran-2-one] — 8-fold lower, 11 nM
- CCc1cc(CCC2(C3CCCC3)CC(O)=C(Cc3nc4ncc(C)cn4n3)C(=O)O2)ccc1O (stereo not drawn) [A(126), 6-Cyclopentyl-6-[2-(3-ethyl-4-hydroxy-phenyl)-ethyl]-4-hydroxy-3-(6-methyl-[1,2,4]triazolo[1,5-a]pyrimidin-2-ylmethyl)-5,6-dihydro-pyran-2-one] — 9.8-fold lower, 9 nM
- CCc1cc(CCC2(C3CCCC3)CC(O)=C(Cc3nc4ncc(Cl)cn4n3)C(=O)O2)ccc1O (stereo not drawn) [A(127), 3-(6-Chloro-[1,2,4]triazolo[1,5-a]pyrimidin-2-ylmethyl)-6-cyclopentyl-6-[2-(3-ethyl-4-hydroxy-phenyl)-ethyl]-4-hydroxy-5,6-dihydro-pyran-2-one] — 18-fold lower, 5 nM
- CCc1cc(CCC2(C3CCCC3)CC(=O)CC(=O)O2)ccc1OCCO (stereo not drawn) [A(128), 6-Cyclopentyl-6-{2-[3-ethyl-4-(2-hydroxy-ethoxy)-phenyl]-ethyl}-dihydro-pyran-2,4-dione] — 5.6-fold higher, 490 nM
- O=C1CC(=O)OC(CCc2ccc(O)c(F)c2)(C2CCCC2)C1 (stereo not drawn) [A(129), 6-Cyclopentyl-6-[2-(3-fluoro-4-hydroxy-phenyl)-ethyl]-dihydro-pyran-2,4-dione] — 100-fold higher, 8900 nM
- COc1ccc(CCC2(C3CCCC3)CC(=O)CC(=O)O2)cc1C1CC1 (stereo not drawn) [A(130), 6-Cyclopentyl-6-[2-(3-cyclopropyl-4-methoxy-phenyl)-ethyl]-dihydro-pyran-2,4-dione] — 15-fold higher, 1300 nM
- Cc1cc(C)n2nc(CC3=C(O)CC(CCc4ccc(N(C)S(C)(=O)=O)c(F)c4)(C4CCCC4)OC3=O)nc2n1 (stereo not drawn) [A(131), 6-cyclopentyl-3-[(5,7-dimethyl[1,2,4]triazolo[1,5-a]pyrimidin-2-yl)methyl]-6-[2-(3-fluoro-4-{methyl[methyl(dimethylene)-I^6-sulfanyl]amino}phenyl)ethyl]-4-hydroxy-5,6-dihydro-2H-pyran-2-one] — 1.6-fold higher, 137 nM
- CN(c1ccc(CCC2(C3CCCC3)CC(=O)CC(=O)O2)cc1F)S(C)(=O)=O (stereo not drawn) [A(132), 6-cyclopentyl-6-[2-(3-fluoro-4-{methyl[methyl(dimethylene)-6-sulfanyl]amino}phenyl)ethyl]dihydro-2H-pyran-2,4(3H)-dione] — 150-fold higher, 13000 nM
- Cc1cc(C)n2nc(CC3=C(O)CC(CCc4ccc(N(C)S(C)(=O)=O)cc4)(C4CCCC4)OC3=O)nc2n1 (stereo not drawn) [A(133), 6-cyclopentyl-3-[(5,7-dimethyl[1,2,4]triazolo[1,5-a]pyrimidin-2-yl)methyl]-4-hydroxy-6-[2-(4-{methyl[methyl(dimethylene)-I^6-sulfanyl]amino}phenyl)ethyl]-5,6-dihydro-2H-pyran-2-one] — within 1.5-fold, 72 nM
- O=C1CC(=O)OC(CCc2ccc(N3CCCS3(=O)=O)c(F)c2)(C2CCCC2)C1 (stereo not drawn) [A(134), 6-cyclopentyl-6-{2-[4-(1,1-dioxidoisothiazolidin-2-yl)-3-fluorophenyl]ethyl}dihydro-2H-pyran-2,4(3H)-dione] — 430-fold higher, 38000 nM
- Cc1cc(C)n2nc(CC3=C(O)CC(CCc4ccc(O)c(C5CCCC5)c4)(C4CCCC4)OC3=O)nc2n1 (stereo not drawn) [A(135), 6-cyclopentyl-6-[2-(3-cyclopentyl-4-hydroxyphenyl)ethyl]-3-[(5,7-dimethyl[1,2,4]triazolo[1,5-a]pyrimidin-2-yl)methyl]-4-hydroxy-5,6-dihydro-2H-pyran-2-one] — 5.9-fold lower, 15 nM
